Laboratory results: ChEMBL document CHEMBL5241109, “Roles and drug development of METTL3 (methyltransferase-like 3) in anti-tumor therapy” (Eur J Med Chem, 2022)

Assays:
[1] = Apparent permeability across apical to basolateral side in human Caco-2 cells; assay type: ADME, cell-based
[2] = Apparent permeability across basolateral to apical side in human Caco-2 cells; assay type: ADME, cell-based
[3] = Efflux ratio of apparent permeability across basolateral to apical side over apical to basolateral side in human Caco-2 cells; assay type: ADME, cell-based
[4] = biological target: T1, N6-adenosine-methyltransferase catalytic subunit (Homo sapiens, UniProt Q86U44); experiment: Inhibition of METTL3 (unknown origin) assessed as remaining activity at 500 uM relative to control
[5] = biological target: T1, N6-adenosine-methyltransferase catalytic subunit; experiment: Inhibition of METTL3 (unknown origin)

T1 sequence (Q86U44 whole entry): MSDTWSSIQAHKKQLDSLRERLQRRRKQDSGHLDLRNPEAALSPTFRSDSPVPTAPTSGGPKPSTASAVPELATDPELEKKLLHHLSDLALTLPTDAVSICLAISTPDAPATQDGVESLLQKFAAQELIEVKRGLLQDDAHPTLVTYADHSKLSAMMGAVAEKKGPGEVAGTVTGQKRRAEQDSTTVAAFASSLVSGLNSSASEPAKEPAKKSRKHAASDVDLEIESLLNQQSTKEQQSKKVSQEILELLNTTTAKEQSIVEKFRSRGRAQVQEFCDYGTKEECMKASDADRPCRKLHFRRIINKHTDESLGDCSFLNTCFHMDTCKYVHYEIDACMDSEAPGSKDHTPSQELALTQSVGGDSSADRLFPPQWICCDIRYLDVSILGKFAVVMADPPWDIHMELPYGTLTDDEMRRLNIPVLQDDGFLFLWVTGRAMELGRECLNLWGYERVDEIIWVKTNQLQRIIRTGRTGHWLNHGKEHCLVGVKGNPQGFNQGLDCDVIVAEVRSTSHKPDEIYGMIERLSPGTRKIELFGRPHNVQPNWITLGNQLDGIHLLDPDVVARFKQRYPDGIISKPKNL

Row | Activity [4] | IC50 [5] | Structure (SMILES) | other results
1 |  |  | COCCc1ccc(OCC(O)CNC(C)C)cc1 (configuration not stated) [METOPROLOL] | Papp A→B [1]: 31.4 ×10⁻⁶ cm/s; Papp B→A [2]: 33.3 ×10⁻⁶ cm/s; efflux ratio [3]: 1.1
2 | 20% | 98 µM | CNC1CCC(O)(Cn2cnc3c(N)ncnc32)C(O)C1 (configuration not stated) | 
3 |  | 495 µM | Nc1ncnc2c1ncn2[C@@H]1O[C@H](CO)[C@@H](O)[C@H]1O [ADENOSINE] | 
4 |  |  | CC[C@H]1OC(=O)[C@H](C)[C@@H](O[C@H]2C[C@@](C)(OC)[C@@H](O)[C@H](C)O2)[C@H](C)[C@@H](O[C@@H]2O[C@H](C)C[C@H](N(C)C)[C@H]2O)[C@](C)(O)C[C@@H](C)C(=O)[C@H](C)[C@@H](O)[C@]1(C)O [ERYTHROMYCIN] | Papp [1]: 0.2 10^-6 cm/s; Papp [2]: 17.5 10^-6 cm/s; Ratio [3]: 62.9
5 | 38% | 332 µM | Nc1ncnc2c1ncn2[C@@H]1O[C@H](C(=O)NCCCNC(=O)c2ccccn2)[C@@H](O)[C@H]1O | 
6 | 18% | 65 µM | CN1CCC(NC(=O)[C@H]2O[C@@H](n3cnc4c(N)ncnc43)[C@H](O)[C@@H]2O)CC1 | 
7 |  | 8.7 µM | Nc1ncnc2c1ncn2[C@@H]1O[C@H](C(=O)NCCCCN2CCCC2)[C@@H](O)[C@H]1O | 
8 | 107% | > 250 µM | Nc1ncnc2c1ncn2C[C@H]1OC[C@@H](N)[C@H](O)[C@@H]1O | 
9 |  | > 250 µM | Nc1ncnc2c1ncn2[C@@H]1O[C@H](C(=O)NCC2CCNCC2)[C@@H](O)[C@H]1O | 
